Values of other authors as cited in patent US5279834A, “Pharmaceutical or cosmetic composition containing hydroquinone and kojic acid” (priority 1987, dated 1994).

Conditions: background statement; The Journal of Investigative Dermatology 73, 354-358 (1979)

Q: Which irritant character does the source give for `CC1=C(/C=C/C(C)=C/C=C/C(C)=C/C(=O)O)C(C)(C)CCC1` [vitamin A acid] here?
A: well known for its irritant character
